Data from US10081632B2, “Substituted tetrahydropyrido[3′,2′:4,5]pyrrolo[1,2-α]pyrazine-2-carboxamides as RSK inhibitors” (Phoenix Molecular Designs, priority 2016, dated 2018).

Experiments:
RSK2 = RSK2 (Homo sapiens (Human), UniProt P51812); assay: Radioisotope kinase assay (SignalChem), RSK2; format: biochemical; conditions: 33P-ATP, 30° C., 15 minutes
Experimental: The assay conditions for the RSK2 kinase target were optimized to yield acceptable enzymatic activity. In addition, the assays were optimized to give high signal-to-noise ratio.
Radioisotope assays (SignalChem) were performed for the evaluation of the kinase target profiling and all assays were performed in a designated radioactive working area. The kinase targets were RSK1, RSK2, RSK3, RSK4 and MK2.
The assay was initiated by the addition of ^33P-ATP and the reaction mixture incubated at 30° C. for 15 minutes. After the incubation period, the assay was terminated by spotting 10 μL of the reaction mixture onto Multiscreen phosphocellulose P81 plate. The Multiscreen phosphocellulose P81 plate was washed 3 times for approximately 15 minutes each in a 1% phosphoric acid solution. The radioactivity on the P81 plate was counted in the presence of scintillation fluid in a Trilux scintillation counter.
Blank controls were set up for each target kinase which included all the assay components except the addition of the appropriate substrate (which was replaced with equal volume of assay dilution buffer). The corrected activity for each target kinase was determined by removing the blank control value.

[1] = Solubility assessment, 20 mg/ml solution; format: physicochemical
Experimental: Solubility is an important property for therapeutic drug candidates. Poor solubility can lead to low bioavailability resulting in suboptimal drug delivery. It can also prevent the evaluation of test agents in animals because the concentration(s) needed to achieve the desired effect cannot be achieved to poor solubility. For solubility assessments, small molecules targeting RSK were compared. For these assessments, 100 mM solutions of the compounds dissolved in DMSO were diluted in DMEM growth media (Life Technologies) supplemented with fetal bovine serum (FBS, Life Technologies) and 100 units/ml penicillin and 100 units/ml streptomycin (Life Technologies) to make 20 mg/ml solutions. Once diluted, the solutions were vortexed and examined for the formation of precipitates. […] For Compound 26, a 100 mM solution of the compound dissolved in DMSO was diluted in phosphate buffered saline (Life Technologies) to make a 20 mg/ml solution. The stock of […] was chosen because this is the upper end of what would be required to dose mice for a range of studies including MTD, PK, PD and efficacy. The pH of this solution was determined to be 2, as previously described. […] At high concentrations some RSK inhibitors were highly soluble while others were not. Compound 0 is (R)—N-(1-benzyl-1H-pyrazol-4-yl)-9-methyl-6-oxo-6,7,8,9-tetrahydropyrido[3′,2′:4,5]pyrrolo[1,2-a]pyrazine-2-carboxamide. Compound 0 was not soluble, whereas Compounds 18, 20, 21, 25 and 26 were soluble under the same conditions (Table 5).

Chain of RSK2 (P51812 whole entry): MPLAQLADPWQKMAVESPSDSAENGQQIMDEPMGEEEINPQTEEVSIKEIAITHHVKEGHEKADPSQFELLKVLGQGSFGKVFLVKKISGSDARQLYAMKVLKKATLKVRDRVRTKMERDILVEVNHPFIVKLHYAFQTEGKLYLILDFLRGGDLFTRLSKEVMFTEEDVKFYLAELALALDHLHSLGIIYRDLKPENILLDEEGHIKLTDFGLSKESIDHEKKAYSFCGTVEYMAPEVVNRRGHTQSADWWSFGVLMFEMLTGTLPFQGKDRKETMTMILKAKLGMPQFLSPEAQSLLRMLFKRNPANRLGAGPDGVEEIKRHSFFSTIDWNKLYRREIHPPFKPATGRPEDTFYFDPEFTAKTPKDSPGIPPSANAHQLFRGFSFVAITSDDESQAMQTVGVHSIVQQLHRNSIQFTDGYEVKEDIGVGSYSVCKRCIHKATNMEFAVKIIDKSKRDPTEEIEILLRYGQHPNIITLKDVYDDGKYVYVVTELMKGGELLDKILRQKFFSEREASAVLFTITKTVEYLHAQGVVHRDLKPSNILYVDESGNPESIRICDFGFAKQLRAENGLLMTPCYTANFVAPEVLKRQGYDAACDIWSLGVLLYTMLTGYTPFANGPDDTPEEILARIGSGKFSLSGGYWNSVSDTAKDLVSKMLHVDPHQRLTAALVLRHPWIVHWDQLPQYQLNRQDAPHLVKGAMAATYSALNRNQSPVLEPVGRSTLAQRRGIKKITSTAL

SMILES	IC50 (RSK2) [µM]	Solubility, 20 mg/ml Solution ([1]; 100 mM in DMSO diluted in DMEM growth media to 20 mg/ml)	pH of 20 mg/ml solution ([1]; DMSO stock diluted in DMEM, pH test strips)
O=C(Nc1ccc2cc3n(c2c1)CCNC3=O)c1cnn(Cc2ccccc2)c1 [Compound 12, 1-benzyl-N-(1-oxo-1,2,3,4-tetrahydropyrazino[1,2-a]indol-7-yl)-1H-pyrazole-4-carboxamide]	> 1	–	–
O=C(Nc1ccc2c(CN3CCOCC3)c[nH]c2c1)c1cnn(Cc2ccccc2)c1 [Compound 2, 1-Benzyl-N-(3-(morpholinomethyl)-1H-indol-6-yl)-1H-pyrazole-4-carboxamide]	> 10	–	–
CN1CCN(Cc2c[nH]c3ccc(NC(=O)c4cnn(Cc5ccccc5)c4)cc23)CC1 [Compound 3, 1-Benzyl-N-(3-((4-methylpiperazin-1-yl)methyl)-1H-indol-5-yl)-1H-pyrazole-4-carboxamide]	> 10	–	–
CN1CCc2oc3ccc(NC(=O)c4cnn(Cc5ccccc5)c4)cc3c2C1 [Compound 13, 1-benzyl-N-(2-methyl-1,2,3,4-tetrahydrobenzofuro[3,2-c]pyridin-8-yl)-1H-pyrazole-4-carboxamide]	> 1	–	–
O=C(Nc1ccc2[nH]cc(CN3CCOCC3)c2c1)c1cnn(Cc2ccccc2)c1 [Compound 1, 1-Benzyl-N-(3-(morpholinomethyl)-1H-indol-5-yl)-1H-pyrazole-4-carboxamide]	> 10	–	–
CN1CCN(Cc2c[nH]c3cc(NC(=O)c4cnn(Cc5ccccc5)c4)ccc23)CC1 [Compound 4, 1-Benzyl-N-(3-((4-methylpiperazin-1-yl)methyl)-1H-indol-6-yl)-1H-pyrazole-4-carboxamide]	> 10	–	–
CN1CCc2[nH]c3ccc(NC(=O)c4cnn(Cc5ccccc5)c4)cc3c2C1 [Compound 14, 1-benzyl-N-(2-methyl-2,3,4,5-tetrahydro-1H-pyrido[4,3-b]indol-8-yl)-1H-pyrazole-4-carboxamide]	> 1	–	–

Results, then the molecule that gave them:

IC50 (RSK2) [µM]	Solubility, 20 mg/ml Solution ([1]; 100 mM in DMSO diluted in DMEM growth media to 20 mg/ml)	pH of 20 mg/ml solution ([1]; DMSO stock diluted in DMEM, pH test strips)	SMILES
> 10	–	–	O=C(Nc1ccc2c(CN3CCOCC3)coc2c1)c1cnn(Cc2ccccc2)c1 [Compound 7, 1-benzyl-N-(3-(morpholinomethyl)benzofuran-6-yl)-1H-pyrazole-4-carboxamide]
> 10	–	–	O=C(Nc1ccc2occ(CN3CCOCC3)c2c1)c1cnn(Cc2ccccc2)c1 [Compound 8, 1-benzyl-N-(3-(morpholinomethyl)benzofuran-5-yl)-1H-pyrazole-4-carboxamide]
> 10	–	–	O=C(Nc1ccc2occ(CN3CCNCC3)c2c1)c1cnn(Cc2ccccc2)c1 [Compound 9, 1-benzyl-N-(3-(piperazin-1-ylmethyl)benzofuran-5-yl)-1H-pyrazole-4-carboxamide]
> 1	–	–	O=C(Nc1ccc2c(CN3CCNCC3)coc2c1)c1cnn(Cc2ccccc2)c1 [Compound 10, 1-benzyl-N-(3-(piperazin-1-ylmethyl)benzofuran-6-yl)-1H-pyrazole-4-carboxamide]
–	Soluble	8	C[C@@H]1CNC(=O)c2cc3ccc(C(=O)Nc4cnn(CC5CCN(C)CC5)c4)nc3n21 [Compound 20, (R)-9-methyl-N-(1-((1-methylpiperidin-4-yl)methyl)-1H-pyrazol-4-yl)-6-oxo-6,7,8,9-tetrahydropyrido[3′,2′:4,5]pyrrolo[1,2-a]pyrazine-2-carboxamide]
> 10	–	–	O=C(Nc1ccc2scc(CN3CCOCC3)c2c1)c1cnn(Cc2ccccc2)c1 [Compound 5, 1-Benzyl-N-(3-(morpholinomethyl)benzo[b]thiophen-5-yl)-1H-pyrazole-4-carboxamide]
> 10	–	–	O=C(Nc1ccc2scc(CN3CCNCC3)c2c1)c1cnn(Cc2ccccc2)c1 [Compound 6, 1-Benzyl-N-(3-(piperazin-1-ylmethyl)benzo[b]thiophen-5-yl)-1H-pyrazole-4-carboxamide]
